Experimental findings from PubChem BioAssay (NCI) are described below.

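Dose response: 5 concentrations. Exposure: 48 h. Format: 96-well plates. Endpoint: linear interpolation; highest concentration if not reached. TGI marks complete inhibition of growth.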

Assay in all cases: growth of human tumour cells (NCI), 48 h
The test system of assay [1] is IGROV1 ovarian.
Assay [2] concerns HCT-116 colon.
Assay [3] relates to SR leukemia.
The subject of assay [4] is CAKI-1 renal.
The test system of assay [5] is SW-620 colon.
The subject of assay [6] is MALME-3M melanoma.
The subject of assay [7] is LOX IMVI melanoma.
For assay [8], the system named is M14 melanoma.
Assay [9] deals with RXF 393 renal.
Assay [10] has as its system NCI-H522 lung.
The test system of assay [11] is HOP-62 NSCLC.
Assay [12] concerns MCF7 breast.
Assay [13] has as its system MDA-MB-435.
The subject of assay [14] is NCI/ADR-RES ovarian.

For the compound `C[N+](C)(C)CC(=O)N/N=C/c1oc(-c2c(O)ccc3ccccc23)c(-c2c(O)ccc3ccccc23)c1[N+](=O)[O-]`, the TGI in assay [1] was 44.2 µM; in assay [2] it was 24.7 µM; in assay [3], 58.3 µM; in [4] it was 75.5 µM; in [5], greater than 100 µM; in [6], 28.2 µM. Further, the TGI in assay [7] was found to be 33.3 µM; in assay [8], 37.2 µM; in assay [9] it was 26.8 µM; in [10] it was 31.1 µM.

As for `O=c1[nH]c2cc([N+](=O)[O-])ccc2nc1/C(=N/Nc1ccccc1)C(O)c1ccccc1Cl` (stereo not drawn), the TGI in assay [1], in assay [2], in [5], in [11], in assay [6] and in assay [7] was greater than 100 µM throughout. For the same compound, the TGI in assay [8], in assay [9] and in assay [10] was greater than 100 µM each time.

On to `C/C(CC(=O)Nc1ccc([N+](=O)[O-])cc1)=N\NC(N)=O`, for which the TGI is greater than 100 µM in [1]; greater than 100 µM in assay [2]; 45.8 µM in assay [3]; greater than 100 µM in assay [4]; greater than 100 µM in assay [5]; greater than 100 µM in [11]. Besides, the TGI in [6], in [7], in [8], in assay [9] and in [10] was greater than 100 µM each time.

As for `Cn1c(=O)c(Br)c(C=O)n(CCO[N+](=O)[O-])c1=O`, the TGI was determined as 6.17 µM in assay [12]; 16.1 µM in assay [2]; 5.48 µM in [3]; 21.6 µM in assay [13]; 5.45 µM in assay [5]; 37.5 µM in [11]. Besides, the TGI came to 5.51 µM in assay [7], 15 µM in [8] and 4.31 µM in assay [14].

With `COC(=O)C(=O)C(C(=O)C(=O)Nc1ccc(F)cc1)c1nc2ccc([N+](=O)[O-])cc2[nH]c1=O` (stereo not drawn), the TGI in [1], in [2], in [3], in assay [4], in [5] and in assay [11] was greater than 100 µM each time. Also, the TGI in assay [6], in assay [7], in assay [8], in assay [9] and in assay [10] was greater than 100 µM each time.

For the compound `Cc1csc2[n+]1C(=O)/C(=C\c1ccc([N+](=O)[O-])cc1)S2`, the TGI in assay [12] is greater than 100 µM; in assay [2], 38.7 µM; in assay [3], greater than 100 µM; in [13] it was 59.9 µM; in [4] it was 56.4 µM; in assay [5], greater than 100 µM. The TGI is 82.2 µM in assay [11]; 60.4 µM in assay [7]; greater than 100 µM in [8]; 82.6 µM in assay [9]; 63.6 µM in [14].

With `COc1ccc2c3c1O[C@]1(C)C34CCN(C)C(C2)C42C=C[C@@]1(OC)c1c(O)ccc(O)c12`, the TGI in [1], in [2], in assay [5], in assay [11], in assay [6] and in assay [7] was greater than 100 µM each time. In addition, the TGI in assay [9] and in [10] was greater than 100 µM throughout.

For the compound `CC(=O)OC1COC(n2c(O)c(N=NC(N)=S)c3cc(Br)ccc32)C(OC(C)=O)C1OC(C)=O` (stereo not drawn), the TGI in [1], in assay [2], in assay [3], in assay [4], in assay [5] and in assay [11] was greater than 100 µM in each case. The TGI in assay [6], in assay [7], in assay [8], in assay [9] and in assay [10] was greater than 100 µM throughout.

With `C[C@]12CCC(=O)C=C1CC[C@@H]1[C@@H]2CC[C@]2(C)C(=O)NC(=O)C[C@@H]12`, the TGI in [1], in assay [2], in assay [3], in [4], in assay [5] and in assay [11] was greater than 100 µM throughout. The TGI in assay [6], in assay [7], in [8], in assay [9] and in [10] was greater than 100 µM each time.

Turning to `COC(=O)N/N=C(\Cc1ccccc1)CN(C)C`, the TGI in [1], in assay [2], in [5], in [11], in assay [6] and in assay [7] was greater than 100 µM in each case. Moreover, the TGI in [8], in assay [9] and in assay [10] was greater than 100 µM each time.

As for `NC1=C(NC(=O)Cc2ccc(F)cc2)C(=O)c2ccccc2C1=O`, the TGI was 59.4 µM in [1]; greater than 91.1 µM in assay [2]; greater than 100 µM in [3]; greater than 100 µM in assay [4]; greater than 100 µM in assay [5]; greater than 87.6 µM in [11]. Besides, the TGI in assay [6] was greater than 100 µM; in [7], 31.4 µM; in assay [8] it was greater than 100 µM; in [9], 57 µM; in [10], greater than 70.1 µM.

Take `COC(=O)[C@@H]1CN(C(C)=O)C(=O)N1`: the TGI in assay [1], in assay [2], in assay [13], in [4], in assay [5] and in assay [11] was greater than 100 µM in each case. Also, the TGI in assay [6], in [7], in assay [8], in assay [9], in assay [14] and in assay [10] was greater than 100 µM in each case.
